Data taken from patent US9359322B2, “C-linked glucuronide of N-(4-hydroxybenzyl) retinone, analogs thereof, and methods of using the same to inhibit neoplastic cell growth” (Wisconsin Alumni Research Foundation, priority 2005, dated 2016).
Marks after values point to notes of the source that are not given here.

Experiments:
[1] = tested on: DMBA-induced rat mammary tumor; assay: DMBA-induced rat mammary tumor model, retinoid-containing diets; type: in vivo
Description: Preliminary evaluation of the mammary tumor chemotherapeutic activity of 4-HBRCG (7) was conducted, and its toxicity profile was also assessed. As previously described,^7, 12 tumor-bearing female rats (treated ca. 50 days earlier with 7,12-dimethylbenz(a)anthracene [DMBA]) were fed the control or retinoid-containing diets (RA (2), 4-HPR (3) or 4-HBRCG (7)) at 2 mmole/kg diet for 22 days.
(§1) Animal Studies: Mammary tumors were induced by intragastric intubation of 50-day old female Sprague-Dawley rats (Harlan Industries, Indianapolis, Ind.) with a single dose of 15 mg DMBA in 1.0 ml of sesame oil per rat. The rats were then maintained on a powdered Teklad 22/5 rodent chow diet (W) 8640 (Harlan Industries, Indianapolis, Ind.), and allowed food and water ad libitum. Four months later, rats which had developed palpable tumors were randomly assigned to the experimental groups (4 rats/group). The retinoid-treated groups were fed diets supplemented with 2 mmol/kg diet of atRA, 4-HPR, or 4-HBRCG, respectively. The retinoids were added to the diet in a vehicle consisting of 25 ml of ethanol: tricaprylin (1:4 v/v) plus 2% (w/v) of α-tocopherol as previously described.^9 This vehicle was also added to the control diet. The additives were blended into the chow diets using a Hobart food mixer. The diets were fed in stainless steel feeders designed with food hoppers. The food was replaced weekly with freshly prepared diets. Food consumption was determined once weekly, and from that the average daily consumption/rat was estimated. These diets were continuously fed for 22 days. Animals were also weighted weekly and monitored for general health status and signs of possible toxicity due to treatment.
(§2) Baseline measurement of initial tumor sizes, numbers and rat body weights were determined immediately before commencement of treatments, and final measurements were recorded just prior to sacrifice of the animals. Animals were palpated for tumors twice weekly and tumor diameters were measured weekly by a micrometer caliper. Tumor volumes were calculated using the formula [V= 4/3 πr^3] where r is one-half the mean of the sum of the largest diameter and the axis at right angle to it. All tumors as well as lungs, liver, kidney and femur were excised at the end of the experiment for chemical and histopathological evaluation. Blood samples were also taken from each animal for determination of plasma retinol and triglyceride levels.

[2] = Body weight change during retinoid feeding; type: in vivo, rat; details: relative to baseline body weight over 22 days; 2 mmol/kg diet
Description: as §1, §2

[3] = Plasma retinol level (HPLC); type: in vivo, rat; details: 2 mmol/kg diet
Description: as §2
(§3) Plasma Retinoid Assay. To 500 μL of plasma was added 150 μL of ethanol containing 0.75 μg of internal standard (N-(4-chlorophenyl) retinamide). After mixing 30 sec., 500 μL of ethyl acetate was added followed by 1 min. of mixing and centrifugation for 5 minutes at 1000 rpm in an IEC CL centrifuge. The ethyl acetate layer was removed and syringe filtered through a 0.45 um filter. The ethyl acetate extraction was repeated two more times. The combined extracts were evaporated and the residue reconstituted in 100 μL of methanol. The methanol extract (20 μL) was analyzed by HPLC on a Beckman Instruments model 127 instrument equipped with a model 166 UV detector. Chromatography was done on a precolumn equipped 250×4.6 mm Bechman Ultrasphere ODS column with an 85% methanol/water mobile phase (both containing 10 mM ammonium acetate) flowing at 1 mL/min. Analysis for both internal standard and retinol was conducted at 350 nm and internal standard recoveries and retinol levels were determined by comparison with standard curves, with adjustment of the retinol level based on recovery. Recoveries of internal standard averaged ca. 78%. […] In the 4-HPR treated group, plasma levels of this retinoid were evaluated simultaneously in the same samples as above. In order to avoid interfering substances, plasma treatment retinoid levels for RA and 4-HBRCG were measured using the above system and a step gradient of 75% methanol for 15 min. followed by 85% methanol for 40 minutes.

[4] = Terminal plasma drug levels (plasma retinoid assay, HPLC); type: in vivo, rat; details: day 22 of treatment; 2 mmol/kg diet; ± SEM
Description: as §3

[5] = Plasma triglyceride measurement; type: in vivo, rat; details: 2 mmol/kg diet, 22 days; FIG. 2A
Description: Plasma Triglyceride Measurement. Bloods were drawn from anesthetized animals in the presence of EDTA as an anticoagulant, and the resulting plasma was used for the measurement of plasma “true” triglyceride levels using a kit from Sigma-Aldrich (Saint Louis, Mo.). Briefly, the total plasma triglyceride and glycerol concentrations were determined, and the glycerol component was subtracted from the total plasma triglyceride measurement to obtain the “true” serum triglyceride concentration.

[6] = Femur bone mineral content; type: in vivo, rat; details: end of feeding study; FIG. 2B
Excerpt: Bone Mineral Content. The femur was disarticulated from the leg, and the adhering soft tissue was removed by dissection. Femurs were scanned using the Lunar PIXImus 2 system (Model X2608, General Electric using the LUNAR software version 1.45), and control measurements were made using the small animal quality control phantom. Femurs were scanned 5 times each with re-positioning at each measure. The average value of the bone mineral content (BMC) in grams for each animal is reported as one independent measure.

CYP26A1 mRNA = assay: Induction of CYP26A1 mRNA in liver (Q-PCR); type: in vivo, rat; details: at sacrifice, retinoid-fed rats, 2 mmol/kg diet; FIG. 4
CYP26B1 mRNA [7] = assay: Induction of CYP26B1 mRNA in lung (Q-PCR); type: in vivo, rat; details: at sacrifice, retinoid-fed rats, 2 mmol/kg diet; data not shown
[8] = tested on: DMBA-induced rat mammary tumor; details: cited from earlier work
RARβ = biological target: T1, RARβ (Homo sapiens, UniProt P10826); details: cited from earlier work
T1 sequence (P10826 1-455): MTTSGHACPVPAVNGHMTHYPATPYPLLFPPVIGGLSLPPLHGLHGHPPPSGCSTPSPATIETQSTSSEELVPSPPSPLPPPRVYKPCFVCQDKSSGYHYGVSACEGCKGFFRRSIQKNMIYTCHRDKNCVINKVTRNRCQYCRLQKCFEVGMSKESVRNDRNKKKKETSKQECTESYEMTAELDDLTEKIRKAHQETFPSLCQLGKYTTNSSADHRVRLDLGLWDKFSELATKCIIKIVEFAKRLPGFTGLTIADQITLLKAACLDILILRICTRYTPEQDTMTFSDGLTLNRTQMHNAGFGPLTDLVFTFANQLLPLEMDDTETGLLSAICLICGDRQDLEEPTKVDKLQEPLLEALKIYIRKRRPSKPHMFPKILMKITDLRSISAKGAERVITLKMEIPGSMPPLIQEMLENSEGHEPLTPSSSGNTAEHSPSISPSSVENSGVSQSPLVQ

RARγ = biological target: T2, RARγ (Homo sapiens, UniProt P13631); details: cited from earlier work
T2 sequence (P13631 1-454): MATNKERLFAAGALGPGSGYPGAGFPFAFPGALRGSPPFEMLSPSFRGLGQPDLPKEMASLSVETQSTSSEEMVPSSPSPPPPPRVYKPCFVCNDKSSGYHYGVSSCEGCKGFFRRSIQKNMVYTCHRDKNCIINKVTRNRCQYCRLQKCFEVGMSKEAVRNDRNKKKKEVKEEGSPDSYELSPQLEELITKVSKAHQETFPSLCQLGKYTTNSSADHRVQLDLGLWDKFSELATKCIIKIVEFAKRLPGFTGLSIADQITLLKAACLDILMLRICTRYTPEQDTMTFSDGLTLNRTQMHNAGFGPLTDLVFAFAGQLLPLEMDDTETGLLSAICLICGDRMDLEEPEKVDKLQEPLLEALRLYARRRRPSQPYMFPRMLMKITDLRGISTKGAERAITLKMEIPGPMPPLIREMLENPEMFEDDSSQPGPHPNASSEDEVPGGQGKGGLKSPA

CYP26B1 mRNA [9] = details: vitamin A-deficient rats; background; cited from earlier work
[10] = background statement; cited from earlier work
[11] = biological target: serum retinol-binding protein, RBP (Homo sapiens, UniProt P02753); details: cited from earlier work
[12] = vitamin A-deficient rats; cited from earlier work
[13] = cited from earlier work
[14] = number of individual tumors, 2 mmol/kg diet, 22 days

SMILES: CC1=C(/C=C/C(C)=C/C=C/C(C)=C/C(=O)Nc2ccc(O)cc2)C(C)(C)CCC1 [4-HPR (3), N-(4-hydroxyphenyl) retinamide]
- % Change in tumor volume from baseline ([1]; 2 mmol/kg diet for 22 days): −33 ^d %
- Final tumor volume ([1]; 2 mmol/kg diet for 22 days, mean ± SEM): 0.08 ± 0.02 cm^3
- Initial tumor volumes ([1]; baseline before treatment, mean ± SEM): 0.12 ± 0.03 cm^3
- Complete regression (tumors that totally disappeared) [1, 14]: 1
- No effect [1, 14]: 3
- Partial regression (tumors with 25-75% decrease in volume) [1, 14]: 15
- New tumors ([1]; number of tumors, 2 mmol/kg diet, 22 days): 0
- % Weight change [2]: +3%
- Effect on blood retinol [3]: the same amount of 4-HPR did
- Plasma retinol ([3]; day 22 of treatment, mean ± SEM): 0.21 ± 0.05 ^e μg/ml
- Plasma retinoid concentration (terminal plasma drug level) [4]: 0.67 ± 0.07 µg/mL
- Effect on serum triglyceride concentration [5]: small but insignificant increase
- Effect on femur bone mineral content vs control [6]: showed no such effect
- Induction of CYP26A1 mRNA in liver (CYP26A1 mRNA): 37 fold above control
- Induction of CYP26B1 mRNA in lung (CYP26B1 mRNA [7]): 20 fold above control
- Chemotherapeutic activity in DMBA-induced rat mammary tumor model [8]: equiactive chemotherapeutics
- Times less potent than atRA in competing for [3H]atRA binding to RARβ (RARβ): ~3000 times
- Times less able than atRA to compete for binding to RARγ (RARγ): 2500 times
- Induction of CYP26B1 mRNA expression in lungs (CYP26B1 mRNA [9]): induces CYP26B1 mRNA expression in a RA-like manner
- Teratogenicity relative to RA [10]: 100 times less teratogenic than RA
- Binding to RBP [11]: equivalent binding to RBP
- Hydrolysis to liberate retinoic acid [12]: is hydrolyzed to liberate retinoic acid

SMILES: CC1=C(/C=C/C(C)=C/C=C/C(C)=C/C(=O)Cc2ccc(O)cc2)C(C)(C)CCC1 [4-HBR, 4-hydroxybenzyl retinone]
- Chemotherapeutic activity in DMBA-induced rat mammary tumor model [8]: equiactive chemotherapeutics
- Effect on blood retinol levels [13]: does not lower blood retinol levels
- Binding to RBP [11]: equivalent binding to RBP
